Measurements taken from patent US10548911B2, “Small molecule anti-scarring agents” (UNIVERSITY OF ROCHESTER, priority 2014, dated 2020).
“Also recorded” adds a separate entry of the source.

Key:
[1] = tested on: primary human orbital fibroblasts; test: TGFβ-induced myofibroblast formation, αSMA Western blot, primary human orbital fibroblasts; conditions: HCPT 50 nM to 500 nM, TGFβ
Procedure: Total protein was isolated from 0.5-2×10^6 cells and lysed in 60 mM Tris, pH 6.8, 2% SDS containing 1× protease inhibitor cocktail (Sigma, St. Louis, Mo.). The lysates were passed through a 26 gauge needle 5-6 times to shear genomic DNA. Protein concentrations were determined using the detergent compatible protein assay (BioRad). Total protein (1-10 ug per lane) was subjected to SDS-PAGE. Protein gels were transferred to PVDF membrane (Millipore) and probed with antibodies as specified. Western blot band intensities were quantified using ImageLab software (BioRad). Protein expression was normalized to β-tubulin levels.
Primary human orbital fibroblasts, primary human lung fibroblasts, and primary mouse lung fibroblasts were treated with TGFβ and HCPT (50 nM, 500 nM, and 5000 nM) or SNC (500 nM) or AXD (0.5 μM, 5 μM, and 50 μM) to assess the ability of HCPT to inhibit myofibroblast formation. […] Western blots were performed using cell lysates from the fibroblasts exposed to TGFβ to assess TGFβ-dependent αSMA expression.
Primary human orbital fibroblasts were treated with TGFβ and either 6-formylindolo(3,2-b)carbazole (“FICZ”, 1 μM), Omeprazole (“Ome”, 2 μM, 10 μM, 50 μM, 100 μM, 250 μM, 500 μM), or Flutamide (“Flut”, 2 μM, 10 μM, 50 μM, 100 μM, 250 μM, 500 μM) to assess their ability to inhibit myofibroblast formation. […] Western blots were performed using cell lysates from the fibroblasts exposed to TGFβ to assess TGFβ-dependent αSMA expression. Densitometry analyses of the Western blots were also performed.

[2] = tested on: primary mouse lung fibroblasts; test: TGFβ-induced myofibroblast formation, αSMA Western blot, primary mouse lung fibroblasts; type: cell-based; conditions: HCPT 50 nM to 500 nM
Procedure: Salinomycin and alexidine served as positive controls for anti-fibrotic activity. Western blots were performed using cell lysates from the fibroblasts exposed to TGFβ to assess TGFβ-dependent αSMA expression.

[3] = tested on: primary human lung fibroblasts; test: TGFβ-induced myofibroblast formation, αSMA Western blot and cell images, primary human lung fibroblasts; type: cell-based
Procedure: Human lung fibroblasts were treated with various concentrations of 10-hydroxycamptothecin (HCPT) (50 nM or 500 nM) and induced to form scar-forming myofibroblasts by treating with TGFβ.

For CC[C@@]1(O)C(=O)OCc2c1cc1n(c2=O)Cc2cc3cc(O)ccc3nc2-1 [HCPT, 10-hydroxycamptothecin], the “myofibroblast formation (relative αSMA expression)” value [1] was “potently blocks myofibroblast formation; also recorded: dose-dependent inhibition of αSMA”, the “myofibroblast formation (relative αSMA expression)” value [2] was “less effective in blocking myofibroblast formation; also recorded: potently blocks myofibroblast formation” and the “overt toxicity (cell images)” value ([3]; HCPT 50 nM or 500 nM) was “without being overtly toxic; also recorded: with out being overtly toxic”. The “formation of myofibroblasts (cell images)” value ([3]; HCPT 50 nM or 500 nM, TGFβ) was “not in samples treated with HCPT or SNC; also recorded: not in samples with HCPT or salinomycin (SNC)” and the “myofibroblast formation (relative αSMA expression)” value ([3]; HCPT 50 nM to 500 nM, TGFβ) was “potently blocks myofibroblast formation; also recorded: dose-dependent inhibition of αSMA”.
